Among the data in patent US10160763B2, “WDR5 inhibitors and modulators” (Vanderbilt University, priority 2016, dated 2018) are Kd values, retold here.

In the assay the target is WDR5 (Δ23, residues 24-334) (Homo sapiens, UniProt P61964). As to the kind of experiment: biochemical. The note with it: Kd (M), FPA-based binding affinity at the WDR5 WIN site; IC50 converted to Kd by modified Cheng-Prusoff equation; average of two experiments.

For the compound `O=C(Cc1cc(Cl)cc(Cl)c1)NCc1cccc(-c2cn3c(n2)CCC3)c1` [B18], the Kd (commonly the equilibrium constant for the complex coming apart) came out at 2.08e-07 M.
With `COc1cc(C(=O)NC(c2cccc(-c3cn4c(n3)CCC4)c2)C(C)C)ccc1C` (centres unmarked) [B220, N-(1-(3-(6,7-Dihydro-5H-pyrrolo[1,2-a]imidazol-2-yl)phenyl)-2-methylpropyl)-3-methoxy-4-methylbenzamide] the figure was 2.04e-07 M; with `CC(NC(=O)Cc1ccc(Cl)c(Cl)c1)c1cccc(-c2cn3c(n2)CCC3)c1` (centres unmarked) [B192], 1.25e-07 M.
`CCC(C1CC1)N(Cc1cccc(-c2cn3c(n2)CCC3)c1)C(=O)c1cccc(OC)c1` (centres unmarked) [B87] showed a Kd of 8.63e-07 M.
Under `COc1cccc(NC(=O)NCc2cccc(-c3cn4c(n3)CCC4)c2)c1` [B24] stands 2.05e-07 M; under `Cc1cc(NC(=O)NCc2cccc(-c3cn4c(n3)CCC4)c2)ccc1Cl` [B45], 3.91e-07 M; under `O=C(NCc1cccc(-c2cn3c(n2)CCC3)c1)c1cc(Cl)cc(Cl)c1` [B5], 2.28e-06 M.
Take `O=C(NCc1cccc(-c2cn3c(n2)CCC3)c1)C1CC1c1ccccc1` (centres unmarked) [B39]: the Kd came to 5.61e-07 M.
Take `O=C(Cc1ccc(F)c(Cl)c1)NCc1cc(-c2cn3c(n2)CCC3)cnc1OC1CCC1` [B224]: the Kd was determined as 6.1e-08 M.
Under `O=C(Cc1ccc(Cl)c(Cl)c1)N(Cc1cc(-c2cn3c(n2)CCC3)ccc1N1CCCC1)CC1CC1` [B146] stands 4.16e-07 M.
`COc1cccc(C(=O)N(Cc2cccc(-c3cn4c(n3)CCC4)c2)CC2CCCC2)c1` [B41] had a Kd of 2.95e-07 M.
With `COc1cc(C(=O)NCc2cc(-c3cn4c(n3)CCC4)ccc2N2CCOCC2C)ccc1C` (centres unmarked) [B203] the figure was 2.3e-08 M; with `O=C(C1CCCNC1)N(Cc1cccc(-c2cn3c(n2)CCC3)c1)CC1CC1` (centres unmarked) [B48], 2.71e-05 M.
Under `O=C(Cc1ccc(Cl)nc1)NCc1cccc(-c2cn3c(n2)CCC3)c1` [B135] stands 8.7e-08 M; under `O=C(NCc1cccc(-c2cn3c(n2)CCC3)c1)C1CCNCC1` [B27], 4.19e-06 M; under `O=C(Cc1ccc(Cl)c(Cl)c1)NCc1cc(-c2cn3c(n2)CCC3)ccc1OC1CCCC1` [B109], 1e-05 M.
On to `O=C(CCc1cccc(Cl)c1)NCc1cccc(-c2cn3c(n2)CCC3)c1` [B158], for which the Kd worked out at 4.99e-06 M.
With `COc1cccc(C(=O)NCc2cc(-c3cn4c(n3)CCC4)ccc2-c2ccccc2)c1` [B126] the figure was 5.7e-08 M; with `Cc1cnc(Cl)c(C(=O)NCc2cccc(-c3cn4c(n3)CCC4)c2)c1` [B169], 6.68e-07 M.
Under `COc1cccc(C(=O)N(Cc2cc(-c3cn4c(n3)CCC4)ccc2C)CC2CC2)c1` [B23] stands 3.35e-07 M.
With `COc1cccc(C(=O)NCc2cc(-c3cn4c(n3)CCC4)ccc2OC2CCCC2)c1` [B117], binding was put at a Kd of 1e-05 M.
Consider `CC(NC(=O)Cc1ccc(F)c(Cl)c1)c1cccc(-c2cn3c(n2)CCC3)c1` (centres unmarked) [B206], for which the affinity, expressed as Kd, was 1.35e-06 M.
With `COc1cccc(NC(=O)N(C)Cc2cccc(-c3cn4c(n3)CCC4)c2)c1` [B31] the figure was 3.24e-07 M; with `O=C(NCc1cccc(-c2cn3c(n2)CCC3)c1)c1ccc2c(c1)OCCO2` [B54], 8.08e-07 M; with `O=C(Cc1ccc(O)c(Cl)c1)NCc1cccc(-c2cn3c(n2)CCC3)c1` [B120], 2.32e-07 M.
Under `O=C(NCc1cccc(-c2cn3c(n2)CCC3)c1)c1cocn1` [B168] stands 5.75e-07 M.
As to `COc1cccc(CN(Cc2cccc(-c3cn4c(n3)CCC4)c2)C(=O)c2ccc(OC)c(OC)c2)c1` [B64], the Kd is 5.38e-07 M.
Regarding `CC(C)(NC(=O)Cc1ccc(F)c(Cl)c1)c1cccc(-c2cn3c(n2)CCC3)c1` [B216], binding was put at a Kd of 5.99e-07 M. This Kd and that of the compound before are within 1.5-fold of each other.
`COc1ccc(CN(Cc2cccc(-c3cn4c(n3)CCC4)c2)C(=O)c2ccc(OC)c(OC)c2)cc1` [B65] gave a Kd of 4.15e-07 M.
In turn, `CC(=O)N1CCCC(C(=O)NC(C)c2cccc(-c3cn4c(n3)CCC4)c2)C1` (centres unmarked) [B209] registered a Kd of 1e-08 M.
Under `O=C(Cc1ccc(Br)cc1)NCc1cccc(-c2cn3c(n2)CCC3)c1` [B106] stands 1.33e-07 M; under `O=C(NCc1cccc(-c2cn3c(n2)CCC3)c1)Nc1ccccc1` [B22], 3.83e-06 M.
`CC(=O)NCc1cccc(C(=O)NCc2cccc(-c3cn4c(n3)CCC4)c2)c1` [B189] returned a Kd of 7.41e-07 M.
In turn, `O=C(NCc1cccc(-c2cn3c(n2)CCC3)c1)C1CCCN(C(=O)C2CC2)C1` (centres unmarked) [B187] came in with a Kd of 9.47e-07 M.
Consider `O=C(Cc1ccc(Cl)c(Cl)c1)N(Cc1cc(-c2cn3c(n2)CCC3)ccc1OCC1CC1)CC1CC1` [B100], for which the Kd turned out to be 2e-07 M.
With `Cc1cc(Cl)cc(C(=O)NCc2cccc(-c3cn4c(n3)CCC4)c2)c1` [B160] the figure was 1.81e-06 M; with `NC(C(=O)NCc1cc(-c2cn3c(n2)CCC3)ccc1OC1CCC1)c1ccccc1` (centres unmarked) [B219], 3.83e-07 M; with `O=C(NCc1cccc(-c2cn3c(n2)CCC3)c1)C(c1ccccc1)c1ccccc1` [B67], 1.06e-06 M.
On to `COc1cccc(C(=O)N(CC2CC2)C(C)c2cccc(-c3cn4c(n3)CCC4)c2)c1` (centres unmarked) [B191], for which the affinity, expressed as Kd, was 1.85e-06 M.
In turn, `COc1cccc(C(=O)NCc2cc(-c3cn4c(n3)CCC4)ccc2N2CCN(C)CC2)c1` [B147, N-(5-(6,7-dihydro-5H-pyrrolo[1,2-a]imidazol-2-yl)-2-(4-methylpiperazin-1-yl)benzyl)-3-methoxybenzamide] displayed a Kd of 2.22e-06 M.
With `COc1cccc(C(=O)N(Cc2cccc(-c3cn4c(n3)CCC4)c2)C(C)c2cccc(Cl)c2)c1` (centres unmarked) [B83] the figure was 4.51e-07 M; with `COC(=O)c1cc(CN(CC2CC2)C(=O)c2ccc(OC)c(OC)c2)cc(-c2cn3c(n2)CCC3)c1` [B69], 3.05e-07 M; with `CN(Cc1cccc(-c2cn3c(n2)CCC3)c1)C(=O)Nc1cc(Cl)cc(Cl)c1` [B74], 8.21e-07 M.
For the compound `CC(C(=O)NCc1cccc(-c2cn3c(n2)CCC3)c1)c1ccccc1` (centres unmarked) [B84], binding was put at a Kd of 4.35e-07 M.
For the compound `COc1ccc(C(=O)N(Cc2ccc(C)cc2)Cc2cccc(-c3cn4c(n3)CCC4)c2)cc1OC` [B66], the Kd was 5.53e-07 M.
For the compound `COc1cccc(C(=O)N(Cc2cccc(-c3cn4c(n3)CCC4)c2)C(C2CC2)C2CC2)c1` [B81], the affinity, expressed as Kd, was 1.18e-07 M.
Under `O=C(Cc1ccc(Cl)c(Cl)c1)NCc1cc(-c2cn3c(n2)CCC3)ccc1N1CCCC1` [B118] stands 7.6e-08 M.
Under `O=C(CC12C[C@H]3C[C@@H](C1)C[C@@H](C2)C3)NCc1cccc(-c2cn3c(n2)CCC3)c1` [B107] stands 5.6e-08 M; under `CC(=O)N1CCCC(C(=O)N(Cc2cccc(-c3cn4c(n3)CCC4)c2)CC2CC2)C1` (centres unmarked) [B58], 7.9e-07 M; under `O=C(NCc1cccc(-c2cn3c(n2)CCC3)c1)c1cnco1` [B170], 9.24e-07 M.
In turn, `COc1cccc(CC(=O)NCc2cccc(-c3cn4c(n3)CCC4)c2)c1` [B88] returned a Kd of 8.9e-07 M. The Kd values of the last two compounds are within 1.5-fold of each other.
Regarding `COc1cccc(C(=O)NCc2cc(-c3cn4c(n3)CCC4)ccc2N2CCCC2)c1` [B114], binding was characterised by a dissociation constant (Kd) of 4.73e-07 M.
With `Cc1cc(C(=O)N(Cc2cccc(-c3cn4c(n3)CCC4)c2)CC2CC2)ccc1Cl` [B44] the figure was 2.96e-05 M; with `CCC(=O)N1CCCC(C(=O)NC(C)c2cc(-c3cn4c(n3)CCC4)ccc2OC2CCC2)C1` (centres unmarked) [B210], 3.1e-07 M; with `CC(NC(=O)Cc1ccc(F)c(Cl)c1)c1cc(-c2cn3c(n2)CCC3)ccc1OC1CCC1` (centres unmarked) [B212], 4.7e-08 M.
With `CC(=O)N1CCCCC1C(=O)NCc1cccc(-c2cn3c(n2)CCC3)c1` (centres unmarked) [B188] the figure was 3.3e-08 M; with `O=C(NCc1cccc(-c2cn3c(n2)CCC3)c1)c1ccc(O)nc1` [B26], 2.68e-06 M; with `N#Cc1cccc(C(=O)NCc2cccc(-c3cn4c(n3)CCC4)c2)c1` [B172], 2.18e-07 M.
In turn, `O=C(NCc1cccc(-c2cn3c(n2)CCC3)c1)c1ccc(Cl)cc1Cl` [B4] had a Kd of 3.9e-06 M.
With `CC(NC(=O)Cc1ccc(F)c(Cl)c1)c1cc(-c2cn3c(n2)CCC3)ccc1F` (centres unmarked) [B222] the figure was 9.9e-08 M; with `CS(=O)(=O)N1CCCC(C(=O)NCc2cccc(-c3cn4c(n3)CCC4)c2)C1` (centres unmarked) [B186], 3e-09 M.
Under `O=C(NCc1cc(-c2cn3c(n2)CCC3)ccc1N1CCOCC1)c1cc(Cl)ccn1` [B195] stands 9.61e-07 M.
With `O=C(Cc1ccc(F)c(Cl)c1)NCc1cc(-c2cn3c(n2)CCC3)ccc1N1CCOCC1` [B193] the figure was 3.23e-06 M; with `CN(Cc1cccc(-c2cn3c(n2)CCC3)c1)C(=O)Cc1cc(Cl)cc(Cl)c1` [B71], 6.12e-07 M; with `CC(C)C(NC(=O)Cc1ccc(F)c(Cl)c1)c1cccc(-c2cn3c(n2)CCC3)c1` (centres unmarked) [B221], 1.17e-07 M.
`CC(=O)N1CCC(C(=O)NCc2cccc(-c3cn4c(n3)CCC4)c2)CC1` [B25, 1-Acetyl-N-(3-(6,7-dihydro-5H-pyrrolo[1,2-a]imidazol-2-yl)benzyl)piperidine-4-carboxamide] showed a Kd of 1.37e-06 M.
Compound `COc1cc(C(=O)NCc2cc(-c3cn4c(n3)CCC4)ccc2N2CC(C)OC(C)C2)ccc1C` (centres unmarked) [B174] showed a dissociation constant (Kd) of 1.12e-07 M.
With `COc1ccc(C(=O)N(Cc2cccc(-c3cn4c(n3)CCC4)c2)C(C)c2ccccc2)cc1OC` (centres unmarked) [B70] the figure was 5.98e-06 M; with `O=C(Cc1ccc(Cl)c(Cl)c1)NCc1cc(-c2cn3c(n2)CCC3)ccc1-c1ccccc1` [B111], 2e-08 M.
With `COc1cccc(C(=O)NCc2cc(-c3cn4c(n3)CCC4)ccc2N2CCOCC2)c1` [B139] the figure was 1.84e-07 M; with `O=C(CC1CCCCC1)NCc1cccc(-c2cn3c(n2)CCC3)c1` [B20], 3.63e-06 M; with `O=C(Cc1cccc(Cl)c1Cl)NCc1cccc(-c2cn3c(n2)CCC3)c1` [B149], 8.75e-07 M.
With `CN1CCN(c2ccc(-c3cn4c(n3)CCC4)cc2CNC(=O)Cc2ccc(Cl)c(Cl)c2)CC1` [B142] the figure was 1.2e-07 M; with `O=C(Cc1ccc(Cl)c(Cl)c1)NCc1cc(-c2cn3c(n2)CCC3)ccc1Oc1ccccc1` [B125], 2.2e-07 M.
For the compound `COc1cc(C(=O)NC(C)c2cc(-c3cn4c(n3)CCC4)ccc2N2CCOCC2)ccc1C` (centres unmarked) [B213], the Kd was 4.7e-08 M.
Compound `O=C(NCc1cccc(-c2cn3c(n2)CCC3)c1)c1ccc(F)c(F)c1` [B166] yielded a Kd of 5.8e-08 M.
With `CC(=O)N1CCCC(C(=O)N(Cc2cc(-c3cn4c(n3)CCC4)ccc2OC2CCC2)CC2CC2)C1` (centres unmarked) [B161] the figure was 1e-05 M.
